The text below walks through data of US7071344B1, “Vitamin D derivatives with cyclopropyl rings in the lateral chains, a method and intermediate products for the production thereof and the utilization thereof for producing medicaments” (Schering AG, priority 1997, dated 2006).

The test system of one data set is HL 60 cells. Kind of data set: differentiation induction of HL 60 cells to macrophages (NBT reduction). In kind it is cell-based, human. The settings on record: dose ratio test substance/calcitriol for comparable semi-maximum differentiation induction; 96 hours incubation. As to the method:
The differentiation-stimulating action of calcitriol analogues is also detected quantitatively.
It is known in the literature [Mangelsdorf, D. J. et al., J. Cell. Biol. 98: 391 (1984)] that the treatment of human leukemia cells (promyelocyte cell line HL 60) in vitro with calcitriol induces the differentiation of cells to macrophages.
HL 60 cells are cultivated in tissue culture medium (RPMI 10% fetal calf serum) at 37° C. in an atmosphere of 5% CO2 in air.
For substance testing, the cells are centrifuged off, and 2.0×10^5 cells/ml in phenol red-free tissue culture medium is taken up. The test substances are dissolved in ethanol and diluted with tissue culture medium without phenol red to the desired concentration. The dilution stages are mixed with the cell suspension at a ratio of 1:10, and 100 μl each of this cell suspension that is mixed with substance is pipetted into an indentation of a 96-hole plate. For control, a cell suspension is mixed analogously with the solvent.
After incubation for 96 hours at 37° C. in 5% CO2 in air, 100 μl of an NBT-TPA solution (nitro blue tetrazolium (NBT), final concentration in the batch of 1 mg/ml, tetradecanoyl phorbolmyristate-13-acetate (TPA), final concentration in the batch of 2×10^−7 mol/l) is pipetted into each indentation of the 96-hole plate in the cell suspension.
By incubation for 2 hours at 37° C. and 5% CO2 in air, NBT is reduced to insoluble formazan because of the intracellular oxygen radical release, stimulated by TPA, in the cells that are differentiated to macrophages.
To complete the reaction, the indentations of the 96-hole plate are suctioned off, and the cells are affixed to the bottom of the plate by adding methanol and dried after affixing. To dissolve the intracellular formazan crystals that are formed, 100 μl of potassium hydroxide (2 mol/l) and 100 μl of dimethyl sulfoxide are pipetted into each indentation and ultrasonically treated for 1 minute. The concentration of formazan is measured by spectrophotometry at 650 nm.
As a yardstick for the differentiation induction of HL 60 cells to macrophages, the concentration of formed formazan applies.

For the next data set, the target named is T1, calcitriol receptor (Sus scrofa, UniProt A3RGC1).
T1 sequence (A3RGC1 1-427): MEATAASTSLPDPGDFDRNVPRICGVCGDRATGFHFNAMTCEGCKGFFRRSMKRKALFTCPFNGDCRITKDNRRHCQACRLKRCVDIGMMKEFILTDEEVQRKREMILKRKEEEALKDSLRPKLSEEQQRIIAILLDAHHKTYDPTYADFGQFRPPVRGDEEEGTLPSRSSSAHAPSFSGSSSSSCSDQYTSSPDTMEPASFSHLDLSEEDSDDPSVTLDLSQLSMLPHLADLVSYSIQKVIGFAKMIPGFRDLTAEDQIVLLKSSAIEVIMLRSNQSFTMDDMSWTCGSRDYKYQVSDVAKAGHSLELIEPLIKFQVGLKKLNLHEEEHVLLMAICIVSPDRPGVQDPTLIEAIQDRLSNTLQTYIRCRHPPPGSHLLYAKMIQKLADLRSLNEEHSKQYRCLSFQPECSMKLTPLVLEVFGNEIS
Put plainly: calcitriol-receptor test (competition with 3H-calcitriol). The conditions noted are these: competition factor = concentration of test substance / concentration of calcitriol at 50% competition; protein extract from intestines of juvenile pigs.

The nature of data set [1]: metabolic stability in liver homogenate. The settings on record: half-life in the liver homogenate (rat). It is filed as in vitro ADME. As to the method: To determine the metabolic stability, the test substance is incubated with tissue homogenate (from the rat liver) in the presence of buffer systems. The drop in starting concentration is tracked as a function of time. After a certain time, the incubation is stopped, and the unaltered test substance is extracted from the homogenate (diethyl ether), concentrated by evaporation under nitrogen, isolated via HPLC (mobile solvent: acetonitrile/water) and detected using UV-absorption.

Data set [2] can be described thus: acute hypercalcemic action (serum-calcium) in rats. The conditions noted are these: dose ratio test substance/calcitriol for comparable hypercalcemic action; one-time subcutaneous administration, male rats. In kind it is in vivo, rat. As to the method: To determine the acute hypercalcemic action of various calcitriol derivatives, the test that is described below is carried out:
The action of control (solution base), reference substance (1,25-dihydroxy vitamin D3=calcitriol) and test substance is tested in each case after one-time subcutaneous administration in groups of 10 healthy male rats (140–170 g). During the testing time, the rats are kept in special cages to determine the excretion of water and mineral substances. Urine is collected in 2 fractions (0–16 hours and 16–22 hours). An oral dose of calcium (0.1 mmol of calcium in 6.5% alpha-hydroxypropylcellulose, 5 ml/animal) replaces at 1600 hours the calcium intake that is lacking by food deprivation. At the end of the test, the animals are killed by decapitation and exsanguinated to determine the serum-calcium values. For the primary screen test in vivo, an individual standard dose (200 μg/kg) is tested. For selected substances, the result is supported by establishing a dose-effect relation.
A hypercalcemic action is shown in serum-calcium level values that are higher than in the control.
The significance of differences between substance groups and controls and between test substance and reference substance are supported with suitable statistical processes.

Protocol for calcitriol receptor: The vitamin D activity of the substances according to the invention is determined with the aid of the calcitriol-receptor test. It is carried out using a protein extract from the intestines of juvenile pigs.
Then, the samples are centrifuged at 10,000 g for 5 minutes at 4° C. The supernatant is decanted and measured in a β-counter after 1 hour of equilibration in Picofluor 15™.
The competition curves that are obtained at various concentrations of test substance as well as of reference substance (unlabeled calcitriol) at constant concentration of the reference substance (^3H-calcitriol) are placed in relation to one another, and a competition factor (KF) is determined.
It is defined as a quotient of the concentrations of the respective test substance and the reference substance, which are necessary for 50% competition:

For the compound `C=C1/C(=C\C=C2/CCC[C@]3(C)[C@@H]([C@H](C)/C=C/CC4(C(C)=O)CC4)CC[C@@H]23)C[C@@H](O)C[C@@H]1O` [Compound 66, (5Z,7E,22E)-(1S,3R)-25-Acetyl-26,27-cyclo-9,10-secocholesta-5,7,10(19),22-tetraene-1,3-diol], the “DR HL 60” value in the data set on HL 60 cells stood at 0.5. The KF on calcitriol receptor is on record as 10. The “T½” value in data set [1] stood at 1.83 h. The “DR Ca” value in data set [2] is listed as 30.

As for `C=C1/C(=C\C=C2/CCC[C@]3(C)[C@@H]([C@H](C)/C=C/CC4(C(=O)CCC)CC4)CC[C@@H]23)C[C@@H](O)C[C@@H]1O` [Compound 71, (5Z,7E,22E)-(1S,3R)-25-(1-Oxobutyl)-26,27-cyclo-9,10-secocholesta-5,7,10(19),22-tetraene-1,3-diol], the “DR HL 60” value in the data set with HL 60 cells is 1.7. The KF at calcitriol receptor was 9. In data set [1], the “T½” value is 2 h. Further, in data set [2], the “DR Ca” value was 100.

Take `C=C1/C(=C\C=C2/CCC[C@]3(C)[C@@H]([C@H](C)/C=C/CC4(C(=O)CCCC)CC4)CC[C@@H]23)C[C@@H](O)C[C@@H]1O` [Compound 76, (5Z,7E,22E)-(1S,3R)-25-(1-Oxopentyl)-26,27-cyclo-9,10-secocholesta-5,7,10(19),22-tetraene-1,3-diol]: the “DR HL 60” value in the data set on HL 60 cells is recorded as 19. Further, the KF at calcitriol receptor amounted to 7. In addition, in data set [1], the “T½” value is >2 h. Also, in data set [2], the “DR Ca” value was >100.

For `C=C1C(=CC=C2CCCC3(C)C2CCC3C(C)C=CCC2(C(=O)CCCCC)CC2)CC(O)CC1O` [Compound 81, (5Z,7E,22E)-(1S,3R)-25-(1-Oxohexyl)-26,27-cyclo-9,10-secocholesta-5,7,10(19),22-tetraene-1,3-diol], in the data set with HL 60 cells, the “DR HL 60” value is 9. Also, the KF at calcitriol receptor is 40. For the same compound, the “T½” value in data set [1] was >2 h. Further, the “DR Ca” value in data set [2] is >>300.

For `C=C1/C(=C\C=C2/CCC[C@]3(C)[C@@H]([C@H](C)/C=C/CCC4(C(C)=O)CC4)CC[C@@H]23)C[C@@H](O)C[C@@H]1O` [Compound 126, (5Z,7E,22E)-(1S,3R)-25-Acetyl-26,27-cyclo-24a-homo-9,10-secocholesta-5,7,10(19),22-tetraene-1,3-diol], the “DR HL 60” value in the data set on HL 60 cells came out at 0.5. For the same compound, the KF on calcitriol receptor stood at 5. In data set [1], the “T½” value came out at 2 h. In addition, in data set [2], the “DR Ca” value was 20.

As to `C=C1/C(=C\C=C2/CCC[C@]3(C)[C@@H]([C@H](C)[C@@H](O)CCCC4(C(C)=O)CC4)CC[C@@H]23)C[C@@H](O)C[C@@H]1O` [Compound 127, (5Z,7E)-(1S,3R,22S)-25-Acetyl-26,27-cyclo-24a-homo-9,10-secocholesta-5,7,10(19)-triene-1,3,22-triol], the “DR HL 60” value in the data set with HL 60 cells came to 4. Further, the KF on calcitriol receptor is 30. The “T½” value in data set [1] was determined as 2 h. Moreover, the “DR Ca” value in data set [2] is recorded as >100.

On to `C=C1C(=CC=C2CCCC3(C)C2CCC3C(C)C=CCCC2(C(=O)CCC)CC2)CC(O)CC1O` [Compound 131, (5Z,7E,22E)-(1S,3R)-25-(1-oxobutyl)-26,27-cyclo-24a-homo-9,10-secocholesta-5,7,10(19) ,22-tetraene-1,3-diol], for which the “DR HL 60” value in the data set on HL 60 cells amounted to 0.2. The KF on calcitriol receptor is recorded as 10. Also, the “T½” value in data set [1] was determined as 2 h. Moreover, the “DR Ca” value in data set [2] is 30.

For the compound `C=C1C(=CC=C2CCCC3(C)C2CCC3C(C)C(O)CCCC2(C(=O)CCC)CC2)CC(O)CC1O` [Compound 132, (5Z,7E)-(1S,3R,22S)-25-(1-Oxobutyl)-26,27-cyclo-24a-homo-9,10-secocholesta-5,7,10(19)-triene-1,3,22-triol], the “DR HL 60” value in the data set with HL 60 cells worked out at 2. Also, the KF on calcitriol receptor amounted to 20. In data set [1], the “T½” value was found to be 1.67 h. The “DR Ca” value in data set [2] is reported as >100.

For `C=C1C(=CC=C2CCCC3(C)C2CCC3C(C)C=CCCC2(C(=O)CCCC)CC2)CC(O)CC1O` [Compound 136, (5Z,7E,22E)-(1S,3R)-25-(1-Oxopentyl)-26,27-cyclo-24a-homo-9,10-secocholesta-5,7,10(19),22-tetraene-1,3-diol], the “DR HL 60” value in the data set with HL 60 cells stood at 17. Moreover, at calcitriol receptor, the KF was 10. Besides, in data set [1], the “T½” value was >2 h. For the same compound, the “DR Ca” value in data set [2] was >100.

For `C=C1/C(=C\C=C2/CCC[C@]3(C)[C@@H]([C@H](C)/C=C/[C@@H](O)CCC4(C(C)=O)CC4)CC[C@@H]23)C[C@@H](O)C[C@@H]1O` [Compound 168b, (5Z,7E,22E)-(1S,3R,24S)-25-acetyl-26,27-cyclo-24a,24b-dihomo-9,10-secocholesta-5,7,10(19),22-tetraene-1,3,24-triol], the “DR HL 60” value in the data set on HL 60 cells is given as 7. Also, the KF at calcitriol receptor stood at 3. In data set [1], the “T½” value came to 2 h. In data set [2], the “DR Ca” value is recorded as >100.

On to `C=C1/C(=C\C=C2/CCC[C@]3(C)[C@@H]([C@H](C)/C=C/[C@@H](O)CCC4(C(=O)CCC)CC4)CC[C@@H]23)C[C@@H](O)C[C@@H]1O` [Compound 175b, (5Z,7E,22E)-(1S,3R,24S)-25-(1-oxobutyl)-26,27-cyclo-24a,24b-dihomo-9,10-secocholesta-5,7,10(19),22-tetraene-1,3,24-triol], for which the “DR HL 60” value in the data set on HL 60 cells came to 3. For the same compound, the KF on calcitriol receptor was determined as 1. For the same compound, the “T½” value in data set [1] turned out to be 1.5 h. The “DR Ca” value in data set [2] is >100.

Consider `C=C1/C(=C\C=C2/CCC[C@]3(C)[C@@H]([C@H](C)/C=C/[C@@H](O)CCC4(C(=O)CCCC)CC4)CC[C@@H]23)C[C@@H](O)C[C@@H]1O` [Compound 182b, (5Z,7E,22E)-(1S,3R,24S)-25-(1-oxopentyl)-26,27-cyclo-24a,24b-dihomo-9,10-secocholesta-5,7,10(19) ,22-tetraene-1,3,24-triol], for which, in the data set with HL 60 cells, the “DR HL 60” value stood at 18. Further, the KF on calcitriol receptor worked out at 2. In addition, in data set [1], the “T½” value is 1.67 h. Besides, the “DR Ca” value in data set [2] is given as >100.

As to `C=C1/C(=C\C=C2/CCC[C@]3(C)[C@@H]([C@H](C)/C=C/[C@H](O)C4(CC)CC4)CC[C@@H]23)C[C@@H](O)C[C@@H]1O` [Compound 214a, (5Z,7E,22E)-(1S,3R,24S)-25-Ethyl-26,27-cyclo-9,10-secocholesta-5,7,10(19),22-tetraene-1,3,24-triol], in the data set with HL 60 cells, the “DR HL 60” value is on record as 1.5. For the same compound, at calcitriol receptor, the KF came out at 3. The “T½” value in data set [1] was found to be 1.33 h. Also, the “DR Ca” value in data set [2] was >>1.

In the case of `C=C1/C(=C\C=C2/CCC[C@]3(C)[C@@H]([C@H](C)CCCC(C)(C)O)CC[C@@H]23)C[C@@H](O)C[C@@H]1O` [calcitriol, 1α,25-dihydroxy vitamin D3, reference compound], the “DR HL 60” value in the data set on HL 60 cells is recorded as 1. Besides, the half-life in data set [1] (read-out: T½) was determined as 2 h. Also, the “DR Ca” value in data set [2] is recorded as 1.
